pIC50: −log10 of the molar value. Positions of bridges follow the written chain, without caps; N, C: chain ends. Non-standard residues stand in square brackets, D forms with d. Residues, ends and D or L forms follow the SMILES beside them. *: point of attachment. hPhe(3-Cl-4-CF3) = N[C@@H](CCc1ccc(C(F)(F)F)c(Cl)c1)C(=O)O; hPhe(3-F,4-CF3) = N[C@@H](CCc1ccc(C(F)(F)F)c(F)c1)C(=O)O; hPhe(4-CF3) = N[C@@H](CCc1ccc(C(F)(F)F)cc1)C(=O)O; NMePhe(4-Me) = CN[C@@H](Cc1ccc(C)cc1)C(=O)O; NMeNle(6-CHF2) = CN[C@@H](CCCCC(F)F)C(=O)O; NMeGly(cPent) = CN[C@H](C(=O)O)C1CCCC1; NMeCha = CN[C@@H](CC1CCCCC1)C(=O)O; NMeD = CN[C@@H](CC(=O)O)C(=O)O; CH2CONHtBu = CC(C)(C)NC(=O)C*; NMeL = CN[C@@H](CC(C)C)C(=O)O; NMeV = CN[C@H](C(=O)O)C(C)C; d(β3hA) = C[C@@H](N)CC(=O)O; NMeAbu = CC[C@H](NC)C(=O)O; NMeS = CN[C@@H](CO)C(=O)O; NMeA = CN[C@@H](C)C(=O)O; Nle = CCCC[C@H](N)C(=O)O; Piperidide = C1CCN(*)CC1; Pyrrolidide = C1CCN(*)C1; dNMeA = CN[C@H](C)C(=O)O; Ac5c = NC1(C(=O)O)CCCC1; Aze = O=C(O)[C@@H]1CCN1; Abu = CC[C@H](N)C(=O)O; Ac4c = NC1(C(=O)O)CCC1; CH2CMe2OH = CC(C)(O)C*; Aib = CC(C)(N)C(=O)O; Isopentyl = CC(C)CC*; NEtG = CCNCC(=O)O; Sar = CNCC(=O)O
Molecular target: T1, Kras and SOS1 (biotin-tagged human Kras loaded with GDP, His-tagged human SOS1) (Homo sapiens, UniProt P01116, G12D)
T1 construct: made in house; host or cells: E. coli (stated for Kras only)
Assay: Protein-protein interaction inhibition between Kras and SOS1 (KrasGl2D-SOS PPI) using AlphaScreen
Assay type: binding
Settings: AlphaScreen; biotin-tagged human Kras loaded with GDP, His-tagged human SOS1; read-out: KRAS G12D-SOS PPI IC50
Procedure, shortened: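 Donor beads (nickel) hold His-SOS1; acceptor beads (streptavidin) hold biotin-Kras bound to GDP. Signal measured at 520-620 nm following 680 nm excitation.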

T1 sequence (P01116 1-188 isoform P01116-2 G12D): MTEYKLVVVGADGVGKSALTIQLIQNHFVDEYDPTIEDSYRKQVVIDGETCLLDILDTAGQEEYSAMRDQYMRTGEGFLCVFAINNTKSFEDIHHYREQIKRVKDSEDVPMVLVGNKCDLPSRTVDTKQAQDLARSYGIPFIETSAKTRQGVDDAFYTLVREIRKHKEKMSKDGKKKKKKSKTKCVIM

| SMILES | pIC50 |
| --- | --- |
| CC[C@H](C)[C@@H]1NC(=O)[C@H](CC(C)C)N(C)C(=O)C[C@@H](C(=O)N2CCCCC2)N(C)C(=O)[C@H](CC(C)C)N(C)C(=O)C(C)(C)NC(=O)[C@H](CC(C)C)N(C)C(=O)[C@H](CCc2ccc(C(F)(F)F)c(F)c2)NC(=O)CN(C)C(=O)[C@H](CCCCC(F)F)N(C)C(=O)CN(C)C(=O)CN(C)C1=O [Compound 1456] ([NMeL]I[Sar][Sar][NMeNle(6-CHF2)][Sar][hPhe(3-F,4-CF3)][NMeL][Aib][NMeL][NMeD]-Piperidide; lactam N-11) | 7.92 |
| CC[C@@H]1NC(=O)[C@H]([C@@H](C)CC)NC(=O)[C@H](CC(C)C)N(C)C(=O)C[C@@H](C)NC(=O)[C@H](C(C)C)N(C)C(=O)C2(CCCC2)NC(=O)[C@@H]2CCCN2C(=O)[C@H](CCc2ccc(C(F)(F)F)c(Cl)c2)NC(=O)CN(C)C(=O)[C@H](CC2CCCCC2)N(C)C(=O)CN(C)C1=O [Compound 1459] (cyclo([Abu][Sar][NMeCha][Sar][hPhe(3-Cl-4-CF3)]P[Ac5c][NMeV][d(β3hA)][NMeL]I)) | 6.54 |
| CC[C@H](C)[C@@H]1NC(=O)[C@H](C)N(C)C(=O)C[C@@H](C)NC(=O)[C@H](C2CCCC2)N(C)C(=O)C2(CCCC2)NC(=O)[C@@H]2CCCN2C(=O)[C@H](CCc2ccc(C(F)(F)F)c(Cl)c2)NC(=O)[C@@H](C)N(C)C(=O)[C@H](Cc2ccc(C)cc2)N(C)C(=O)CN(C)C(=O)CN(C)C1=O [Compound 1465] (cyclo([Ac5c][NMeGly(cPent)][d(β3hA)][NMeA]I[Sar][Sar][NMePhe(4-Me)][dNMeA][hPhe(3-Cl-4-CF3)]P)) | 7.29 |
| CC[C@H](C)[C@@H]1NC(=O)[C@H](CC(C)C)N(C)C(=O)C[C@@H](C)NC(=O)[C@H](CC(C)C)N(C)C(=O)C(C)(C)NC(=O)[C@H](COCC(=O)NC(C)(C)C)N(C)C(=O)[C@H](CCc2ccc(C(F)(F)F)c(Cl)c2)NC(=O)CN(C)C(=O)[C@H](COCCC(C)C)N(C)C(=O)CN(C)C(=O)CN(C)C1=O [Compound 1467] (cyclo([Aib][NMeL][d(β3hA)][NMeL]I[Sar][Sar][NMeS](Isopentyl)[Sar][hPhe(3-Cl-4-CF3)][NMeS](CH2CONHtBu))) | 6.92 |
| CC[C@H](C)[C@@H]1NC(=O)[C@H](CC(C)C)N(C)C(=O)C[C@@H](C)NC(=O)[C@H](CC)N(C)C(=O)C2(CCCC2)NC(=O)[C@@H]2CCCN2C(=O)[C@H](CCc2ccc(C(F)(F)F)c(F)c2)NC(=O)CN(C)C(=O)[C@H](CC2CCCCC2)N(C)C(=O)CN(C)C(=O)CN(C)C1=O [Compound 1469] (cyclo([Ac5c][NMeAbu][d(β3hA)][NMeL]I[Sar][Sar][NMeCha][Sar][hPhe(3-F,4-CF3)]P)) | 6.64 |
| CC[C@H](C)[C@@H]1NC(=O)[C@H](CC(C)C)N(C)C(=O)C[C@@H](C)NC(=O)[C@H](CC(C)C)N(C)C(=O)C(C)(C)NC(=O)[C@H](COCC(C)(C)O)N(C)C(=O)[C@H](CCc2ccc(C(F)(F)F)c(Cl)c2)NC(=O)CN(C)C(=O)[C@H](COCCC(C)C)N(C)C(=O)[C@@H]2CCN2C(=O)CN(CC)C1=O [Compound 1472] (cyclo([Aib][NMeL][d(β3hA)][NMeL]I[NEtG][Aze][NMeS](Isopentyl)[Sar][hPhe(3-Cl-4-CF3)][NMeS](CH2CMe2OH))) | 7.17 |
| CC[C@H](C)[C@@H]1NC(=O)[C@H](C)N(C)C(=O)C[C@@H](C)NC(=O)[C@H](C2CCCC2)N(C)C(=O)C2(CCCC2)NC(=O)[C@@H]2CCCN2C(=O)[C@H](CCc2ccc(C(F)(F)F)c(Cl)c2)NC(=O)CN(C)C(=O)[C@H](CC2CCCCC2)N(C)C(=O)CN(C)C(=O)CN(C)C1=O [Compound 1478] (cyclo([Ac5c][NMeGly(cPent)][d(β3hA)][NMeA]I[Sar][Sar][NMeCha][Sar][hPhe(3-Cl-4-CF3)]P)) | 8.52 |
| CC[C@H](C)[C@@H]1NC(=O)[C@H](C)N(C)C(=O)C[C@@H](C)NC(=O)[C@H](C2CCCC2)N(C)C(=O)C2(CCCC2)NC(=O)[C@@H]2CCCN2C(=O)[C@H](CCc2ccc(C(F)(F)F)c(Cl)c2)NC(=O)[C@H]2CCCN2C(=O)[C@H](CC2CCCCC2)N(C)C(=O)[C@@H]2CCN2C(=O)CN(C)C1=O [Compound 1479] (cyclo([Ac5c][NMeGly(cPent)][d(β3hA)][NMeA]I[Sar][Aze][NMeCha][dP][hPhe(3-Cl-4-CF3)]P)) | 6.92 |
| CC[C@H](C)[C@@H]1NC(=O)[C@H](CC(C)C)N(C)C(=O)C[C@@H](C(=O)N2CCCCC2)N(C)C(=O)[C@H](CC(C)C)N(C)C(=O)C(C)(C)NC(=O)[C@H](COCC(=O)NC(C)(C)C)N(C)C(=O)[C@H](CCc2ccc(C(F)(F)F)c(Cl)c2)NC(=O)CN(C)C(=O)[C@H](COCCC(C)C)N(C)C(=O)CN(C)C(=O)CN(C)C1=O [Compound 1480] ([NMeL]I[Sar][Sar][NMeS](Isopentyl)[Sar][hPhe(3-Cl-4-CF3)][NMeS](CH2CONHtBu)[Aib][NMeL][NMeD]-Piperidide; lactam N-11) | 8.05 |
| CC[C@H](C)[C@@H]1NC(=O)[C@H](CC(C)C)N(C)C(=O)C[C@@H](C)NC(=O)[C@H](CC(C)C)N(C)C(=O)C(C)(C)NC(=O)[C@H](COCC(C)(C)O)N(C)C(=O)[C@H](CCc2ccc(C(F)(F)F)c(Cl)c2)NC(=O)CN(C)C(=O)[C@H](COCCC(C)C)N(C)C(=O)CN(CC)C(=O)CN(C)C1=O [Compound 1484] (cyclo([Aib][NMeL][d(β3hA)][NMeL]I[Sar][NEtG][NMeS](Isopentyl)[Sar][hPhe(3-Cl-4-CF3)][NMeS](CH2CMe2OH))) | 6.72 |
| CC[C@H](C)[C@@H]1NC(=O)[C@H](CC(C)C)N(C)C(=O)C[C@@H](C)NC(=O)[C@H](C2CCCC2)N(C)C(=O)C2(CCCC2)NC(=O)[C@@H]2CCCN2C(=O)[C@H](CCc2ccc(C(F)(F)F)c(Cl)c2)NC(=O)[C@H]2CCCN2C(=O)[C@H](Cc2ccc(C)cc2)N(C)C(=O)CN(C)C(=O)CN(C)C1=O [Compound 1487] (cyclo([Ac5c][NMeGly(cPent)][d(β3hA)][NMeL]I[Sar][Sar][NMePhe(4-Me)][dP][hPhe(3-Cl-4-CF3)]P)) | 6.47 |
| CC[C@H](C)[C@@H]1NC(=O)[C@H](CC(C)C)N(C)C(=O)C[C@@H](C)NC(=O)[C@H](C2CCCC2)N(C)C(=O)C2(CCCC2)NC(=O)[C@@H]2CCCN2C(=O)[C@H](CCc2ccc(C(F)(F)F)c(Cl)c2)NC(=O)[C@H]2CCCN2C(=O)[C@H](Cc2ccc(C)cc2)N(C)C(=O)[C@@H]2CCN2C(=O)CN(C)C1=O [Compound 1488] (cyclo([Ac5c][NMeGly(cPent)][d(β3hA)][NMeL]I[Sar][Aze][NMePhe(4-Me)][dP][hPhe(3-Cl-4-CF3)]P)) | 6.59 |
| CC[C@H](C)[C@@H]1NC(=O)[C@H](CC(C)C)N(C)C(=O)C[C@@H](C(=O)N2CCCC2)NC(=O)[C@H](CC(C)C)N(C)C(=O)C2(CCCC2)NC(=O)[C@@H]2CCCN2C(=O)[C@H](CCc2ccc(C(F)(F)F)c(F)c2)NC(=O)CN(C)C(=O)[C@H](CC2CCCCC2)N(C)C(=O)CN(C)C(=O)CN(C)C1=O [Compound 1489] ([NMeL]I[Sar][Sar][NMeCha][Sar][hPhe(3-F,4-CF3)]P[Ac5c][NMeL]D-Pyrrolidide; lactam N-11) | 7.74 |
| CCCC[C@@H]1NC(=O)[C@H](CC(C)C)N(C)C(=O)C[C@@H](C)NC(=O)[C@H](CC(C)C)N(C)C(=O)C2(CCCC2)NC(=O)[C@@H]2CCCN2C(=O)[C@H](CCc2ccc(C(F)(F)F)c(F)c2)NC(=O)CN(C)C(=O)[C@H](CC2CCCCC2)N(C)C(=O)CN(C)C(=O)CN(C)C1=O [Compound 1490] (cyclo([Ac5c][NMeL][d(β3hA)][NMeL][Nle][Sar][Sar][NMeCha][Sar][hPhe(3-F,4-CF3)]P)) | 6.49 |
| CC(C)C[C@H]1C(=O)N[C@@H](C(C)C)C(=O)N(C)CC(=O)N(C)CC(=O)N(C)[C@@H](CC2CCCCC2)C(=O)N(C)CC(=O)N[C@@H](CCc2ccc(C(F)(F)F)c(F)c2)C(=O)N2CCC[C@H]2C(=O)NC2(CCCC2)C(=O)N(C)[C@@H](CC(C)C)C(=O)N[C@H](C)CC(=O)N1C [Compound 1493] (cyclo([Ac5c][NMeL][d(β3hA)][NMeL]V[Sar][Sar][NMeCha][Sar][hPhe(3-F,4-CF3)]P)) | 7.00 |
| CC[C@H](C)[C@@H]1NC(=O)[C@H](C)N(C)C(=O)C[C@@H](C)NC(=O)[C@H](C2CCCC2)N(C)C(=O)C2(CCCC2)NC(=O)[C@@H]2CCCN2C(=O)[C@H](CCc2ccc(C(F)(F)F)c(Cl)c2)NC(=O)[C@H]2CCCN2C(=O)[C@H](Cc2ccc(C)cc2)N(C)C(=O)[C@@H]2CCN2C(=O)CN(C)C1=O [Compound 1494] (cyclo([Ac5c][NMeGly(cPent)][d(β3hA)][NMeA]I[Sar][Aze][NMePhe(4-Me)][dP][hPhe(3-Cl-4-CF3)]P)) | 6.85 |
| CC[C@H](C)[C@@H]1NC(=O)[C@H](CC(C)C)N(C)C(=O)C[C@@H](C(=O)N2CCCCC2)N(C)C(=O)[C@H](CC(C)C)N(C)C(=O)C(C)(C)NC(=O)[C@H](COCC(=O)NC(C)(C)C)N(C)C(=O)[C@H](CCc2ccc(C(F)(F)F)cc2)NC(=O)CN(C)C(=O)[C@H](COCCC(C)C)N(C)C(=O)CN(C)C(=O)CN(C)C1=O [Compound 1502] ([NMeL]I[Sar][Sar][NMeS](Isopentyl)[Sar][hPhe(4-CF3)][NMeS](CH2CONHtBu)[Aib][NMeL][NMeD]-Piperidide; lactam N-11) | 7.62 |
| CC[C@H](C)[C@@H]1NC(=O)[C@H](CC(C)C)N(C)C(=O)C[C@@H](C)NC(=O)[C@H](CC(C)C)N(C)C(=O)C2(CCCC2)NC(=O)[C@@H]2CCCN2C(=O)[C@H](CCc2ccc(C(F)(F)F)c(Cl)c2)NC(=O)CN(C)C(=O)[C@H](CC2CCCCC2)N(C)C(=O)CN(C)C(=O)CN(C)C1=O [Compound 1503] (cyclo([Ac5c][NMeL][d(β3hA)][NMeL]I[Sar][Sar][NMeCha][Sar][hPhe(3-Cl-4-CF3)]P)) | 7.80 |
| CC[C@H](C)[C@@H]1NC(=O)[C@H](C)N(C)C(=O)C[C@@H](C)NC(=O)[C@H](C2CCCC2)N(C)C(=O)C2(CCC2)NC(=O)[C@@H]2CCCN2C(=O)[C@H](CCc2ccc(C(F)(F)F)c(Cl)c2)NC(=O)CN(C)C(=O)[C@H](CC2CCCCC2)N(C)C(=O)CN(C)C(=O)CN(C)C1=O [Compound 1506] (cyclo([Ac4c][NMeGly(cPent)][d(β3hA)][NMeA]I[Sar][Sar][NMeCha][Sar][hPhe(3-Cl-4-CF3)]P)) | 8.54 |

— patent US12371454B2, “Cyclic peptide compound having Kras inhibitory action” (priority 2019, dated 2025)
